# Results reported in patent US20050256081A1, “Tetracycline derivatives for the treatment of ocular pathologies” (priority 2004, published 2005).
# Where “and” joins values, the source holds several entries; their conditions need not be identical. Identical values can stand only once.
# Key:
# [1] = test system: corneal neovascularization; assay: Inhibition of corneal neovascularization after silver nitrate/potassium nitrate corneal burn, graded by slit lamp photography and histology (Example 1); assay type: in vivo, rat; details: agent alone, topically applied twice a day; doxycycline about 1 to about 20 mg/ml, low molecular weight heparin about 10 mg/ml, triamcinolone about 4 mg/ml; compared to controls
# Protocol: Artificial corneal burns were induced in rat eyes to determine the effects of doxycycline, steroids, and low molecular weight heparin, alone and in combinations, on corneal neovascularization.
# The presence of new vessels (neovascularization) and the extent of new vessel formation was assessed by split lamp photography and histology. Inhibition of vessel proliferation was evaluated by measuring vessel progression from the outer cornea (corneal limbus) into the cornea. A numerical rating system was used to quantitate the degree of inhibition (+, ++, and +++ inhibition), with “+ inhibition” indicating inhibition one-third of the distance from the limbus of the cornea to the center; “++ inhibition” indicating inhibition two-thirds of the distance from the limbus to the center; “+++ inhibition” indicating complete inhibition of vessels between the limbus and the center; and the designation “± inhibition” indicating an intermediate degree of inhibition (e.g, less than +, ++, or +++) .
# [2] = test system: corneal neovascularization; assay: Silver nitrate cauterization corneal neovascularization model, doxycycline concentrations and pH (Example 4); assay type: in vivo, Long Evans pigmented rats; details: for Percent area of neovascularization (Mean ± SD): topical two times per day for seven days, n=6, monohydrate
# Description: Thirty-six eyes belonging to thirty-six male Long Evans pigmented rats (200 g to 250 g) were divided into […] groups. Treated eyes were topically administered doxycycline at the following concentrations and having the indicated pH values: 0.05%^w/v (pH 3.3), 0.1%^w/v (pH 3.1), 1%^w/v (pH 2.3), 2%^w/v (pH 2.1), 2%^w/v (adjusted to pH of 7.4). One eye of each animal served as a treated eye and the other eye served as a non-treated control eye. Artificial corneal bums were induced. All the eyes were examined to exclude any eyes with corneal scars and/or neovascularization prior to induction.
# (§1) Neovascularization was induced in all eyes using silver nitrate cauterization. The animals were first anesthetized by intraperitoneal injection of a mixture of ketamine hydrochloride (25 mg/kg) with xylazine hydrochloride (5 mg/kg). The cornea was then anesthetized by a drop of 0.5% proparacaine and allowed to dry.
# (§2) The presence of new vessels (neovascularization) and the extent of new vessel formation was assessed by slit lamp photography and histology. Inhibition of vessel proliferation was evaluated by measuring vessel progression from the outer cornea (corneal limbus) into the cornea. As previously described, it will be appreciated that any reduction of new vessel proliferation and/or regression of existing vessels is therapeutic, and that complete inhibition and/or regression is not required, and also that reduction indudes regression of existing vessels.
# Neovascularization was evaluated by an examiner who was blinded as to the treatment groups to minimize the observer bias.
# The animals were euthanized in a carbon dioxide chamber under deep general anesthesia. The eyes were enucleated and fixed in 10% formaldehyde.
# Corneal neovascularization was assessed by scanning (Cano scan 9900F, Canon, Tokyo Japan) the slit lamp photographs into high resolution digital images. […] The percentage area of the cornea covered by the corneal scar in each eye was also determined. A drawing of corneal blood vessels was made to compare with digital photos and ensure that no vascular area was omitted during calculation of percent area.
# Statistical analyses were performed using each animal as an experimental unit with Statistical Analysis System (SPSS 11.5) software. Kruscal-Vallis and Mann-Whitney U Analysis was conducted and treatment means were separated at p<0.05 with least significant difference (LSD) test. A p value <0.05 was considered significant.
# For histopathologic evaluation, sedated animals were euthanized with inhaled CO2 and enucleation was performed immediately. […] The eyes were prepared for histological examination using 10% formaldehyde. […] The corneas were then soaked in xylene and paraffin, and later embedded in paraffin and cut at […] for staining with hematoxylin and eosin (H&E) for light microscopy.
# Light microscopic examination was performed on every microscopic section.
# [3] = test system: corneal neovascularization; assay: Silver nitrate cauterization corneal neovascularization model, two drug combinations (Example 3); assay type: in vivo, Long Evans rats; details: for effect on corneal neovascularization, individual agents: flurbiprofen 0.03% w/v, LMWH 10 mg/ml, administered as individual agents, data not shown
# Description: Artificial corneal burns were induced in thirty-two eyes belonging to thirty-two Long Evans rats to determine the effects of doxycycline or another tetracycline derivative and low molecular weight heparin, doxycycline or another tetracycline derivative, and flurbiprofen, or flurbiprofen and low molecular weight heparin, on corneal neovascularization. All the eyes were examined to exclude any eyes with corneal scars and/or neovascularization prior to induction.
# as §1
# Group 1 (number of animals, n=8) received a 1:1 combination of 0.03% flurbiprofen sodium ophthalmic solution (Allergan, Irvine CA) and 10 mg/ml low molecular weight heparin (Enoxaparin, Aventis Pharmaceuticals Inc., Bridgewater N.J.); an actual concentration of 0.015% flurbiprofen with 5 mg/ml low molecular weight heparin. […] Group 3 (n=8) received a 1:1 combination of 20 mg/ml doxycycline and 10 mg/ml low molecular weight heparin; an actual concentration of 10 mg/ml doxycycline with 5 mg/ml low molecular weight heparin. Group 4 (n=8) received balanced salt solution (control). The drops were applied topically immediately after cauterization; treatments were administered two times per day for seven days.
# as §2, with “comea.” for “cornea.”, “includes” for “indudes”
# The extent of corneal neovascularization was determined by slit lamp microscopy with photography (SL-7E, Topcon, Tokyo Japan) on day seven after cauterization. The animals were euthanized in a carbon dioxide chamber under deep general anesthesia. […]
# Corneal neovascularization was assessed by scanning (Cano scan 9900F, Canon, Tokyo Japan) the slit lamp photographs into high resolution digital images. […] The percentage area of the cornea covered by the corneal scar in each eye was also determined. […]
# Statistical analysis was performed using Statistical Analysis System (SPSS 11.5) software. The difference between the groups was determined using Mann-Whitney U Analysis test; a p value less than 0.05 was considered significant.
# [4] = test system: corneal neovascularization; assay: Silver nitrate cauterization corneal neovascularization model, single agents (Example 5); assay type: in vivo, Long Evans pigmented rats; details: for NV area compared to the control group (statistical significance): GLM with Tukey's studentized range test, significance at p≦0.05; for neovascularization on digitally enhanced slit lamp photograph: seven days after induction of corneal burn, FIG. 11; for Percent Area Of Neovascularization Mean ± SD: topical two times daily for 7 days, 7th day, ascomycin 50 μg/ml, flurbiprofen 0.03%, doxycycline 20 mg/ml, LMWH 10 mg/ml, triamcinolone acetonide 4 mg/ml
compound,measurement,setting,value
"CC1c2cccc(O)c2C(=O)C2=C(O)C3(O)C(=O)C(C(N)=O)=C(O)C(N(C)C)C3C(O)C21.O (centres unmarked) [doxycycline, 4-(dimethylamino)-1,4,4a,5,5a,6,11,12a-octahydro3,5,10,12,12a-pentahydroxy-6-methyl-1,11-dioxo-2-naphthacenecarboxamide monohydrate]",inhibition of neovascularization,[1],+
same,"histology (H&E), new vessels and inflammatory cells","[2]; 0.05% doxycycline, FIG. 8A",new vessels and inflammatory cells through the entire corneal stroma
same,Percent area of neovascularization (Mean ± SD),"[2]; 0.05% w/v doxycycline, pH 3.3, listed as Doxycycline",69.83 ± 17.98%
same,Percent area of neovascularization (Mean ± SD),"[2]; 0.05% w/v doxycycline, pH 3.3",69.8±17.9%
same,"histology (H&E), new vessels and inflammatory cells","[2]; 0.1% doxycycline, FIG. 8B",new vessels and inflammatory cells through the entire corneal stroma
same,Percent area of neovascularization (Mean ± SD),"[2]; 0.1% w/v doxycycline, pH 3.1, listed as Doxycycline",64.48 ± 14.04%
same,Percent area of neovascularization (Mean ± SD),"[2]; 0.1% w/v doxycycline, pH 3.1",64.5±14.0%
same,"histology (H&E), new vessels and inflammatory cells","[2]; 1% doxycycline, FIG. 8C",inflammatory cells and there was neovascularization in the stroma far from the corneal burn
same,Percent area of neovascularization (Mean ± SD),"[2]; 1% w/v doxycycline, pH 2.3, listed as Doxycycline",56.35 ± 20.84%
same,Percent area of neovascularization (Mean ± SD),"[2]; 1% w/v doxycycline, pH 2.3",56.3±20.8%
same,"histology (H&E), new vessels and inflammatory cells","[2]; 2% doxycycline adjusted to a substantially neutral pH, FIG. 8E",fewer inflammatory cells and less neovascularization in the stroma than eyes administered 1% doxycycline
same,"histology (H&E), new vessels and inflammatory cells","[2]; 2% doxycycline not pH adjusted, FIG. 8D",fewer inflammatory cells and less neovascularization in the stroma than eyes administered 1% doxycycline
same,"mean percentage area of neovascularization, 2% doxycycline pH neutralized compared with 2% doxycycline not adjusted for pH","[2]; 2% doxycycline, pH neutralized",significantly less
same,Percent area of neovascularization (Mean ± SD),"[2]; 2% w/v doxycycline adjusted to pH 7.4, listed as Doxycycline",36.2 ± 4.3%
same,Percent area of neovascularization (Mean ± SD),[2]; 2% w/v doxycycline adjusted to pH 7.4,36.2±4.3%
same,Percent area of neovascularization (Mean ± SD),"[2]; 2% w/v doxycycline, pH 2.1 (not adjusted for pH), listed as Doxycycline",54.78 ± 5.95%
same,Percent area of neovascularization (Mean ± SD),"[2]; 2% w/v doxycycline, pH 2.1 (not adjusted for pH)",54.7±5.9%
same,"effect on corneal neovascularization, individual agent",[3]; doxycycline administered at 10 mg/ml,not when administered at 10 mg/ml
same,"effect on corneal neovascularization, individual agent",[3]; doxycycline administered at 20 mg/ml,did significantly inhibit
same,NV area compared to the control group (statistical significance),[4],significant reduction
same,neovascularization on digitally enhanced slit lamp photograph,[4],neovascularization is less prominent than in control group
same,Percent Area Of Neovascularization Mean ± SD,"[4]; listed as Doxycycline, monohydrate",35.5 ± 29.1%
same,Percent Area Of Neovascularization Mean ± SD,[4]; monohydrate,35.5%±29.1%
low molecular weight heparin,inhibition of neovascularization,[1],+
same,"effect on corneal neovascularization, individual agents",[3],did not significantly decrease corneal neovascularization
same,NV area compared to the control group (statistical significance),[4],no statistically significant differences
same,Percent Area Of Neovascularization Mean ± SD,[4],66.7%±9.9% and 66.7 ± 9.9%
CC[C@@H]1/C=C(\C)C[C@H](C)C[C@H](OC)[C@H]2O[C@@](O)(C(=O)C(=O)N3CCCC[C@H]3C(=O)O[C@H](/C(C)=C/[C@@H]3CC[C@@H](O)[C@H](OC)C3)[C@H](C)[C@@H](O)CC1=O)[C@H](C)C[C@@H]2OC [ascomycin],NV area compared to the control group (statistical significance),[4],no statistically significant differences
same,Percent Area Of Neovascularization Mean ± SD,[4],56.0%±22.4%
same,Percent Area Of Neovascularization Mean ± SD,[4]; listed as Ascomycin,56.0 ± 22.4%
"CC(C(=O)[O-])c1ccc(-c2ccccc2)c(F)c1.O.O.[Na+] (racemic) [flurbiprofen, sodium (±)-2-(2-fluoro-4-biphenylyl)-propionate dihydrate]","effect on corneal neovascularization, individual agents",[3],did not significantly decrease corneal neovascularization
same,NV area compared to the control group (statistical significance),[4],no statistically significant differences
same,neovascularization on digitally enhanced slit lamp photograph,[4],neovascularization is quite prominent
same,Percent Area Of Neovascularization Mean ± SD,[4]; dihydrate,50.5%±18.7%
same,Percent Area Of Neovascularization Mean ± SD,"[4]; listed as Flurbiprofen, dihydrate",50.6 ± 18.7%
